In brackets after ≈: the same amount, converted by molar mass.
Experiments:
[1] = Aqueous solubility; assay type: physicochemical
[2] = solution pH 8, stored at room temperature for approximately 16 months

Row | Compound | aqueous solubility compared with free acid form and compound II [1] | solubility in water ([1]; in water) | compound I choline salt converted to compound II [2] | solubility ([1]; water (aqueous), room temperature) [µg/mL]
1 | C#CCOc1ccc(Nc2nc(Nc3ccc(C)c(S(=O)(=O)NC(=O)CC)c3)ncc2F)cc1.C[N+](C)(C)CCO [VII, 5-Fluoro-N2-[4-methyl-3-(N-propionylaminosulfonyl)phenyl]-N4-[4-(2-propynyloxy)phenyl]-2,4-pyrimidinediamine Choline Salt] | significantly higher aqueous solubility than both its free acid form and compound II | about 9.1 mg/mL | about 5% | –
2 | C#CCOc1ccc(Nc2nc(Nc3ccc(C)c(S(N)(=O)=O)c3)ncc2F)cc1 [Compound II, N2-(3-aminosulfonyl-4-methylphenyl)-5-fluoro-N4-[4-(prop-2-ynyloxy)phenyl]-2,4-pyrimidinediamine] | – | – | – | ~0.9 (≈ 2.11 µM)

— patent publication US20140206708A1, “COMPOSITION FOR OPHTHALMIC ADMINISTRATION” (Rigel Pharmaceuticals, Inc., priority 2013, published 2014)
